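Dose response: 5 concentrations. Exposure: 48 h. Format: 96-well plates. Endpoint: linear interpolation; highest concentration if not reached. GI50 is the concentration that inhibits growth by half. The concentration for full growth arrest is given as TGI.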
Assays:
Assay in all cases: DTP human tumour cell line panel, 48 h
HOP-62 NSCLC = tested on: HOP-62 NSCLC
U251 CNS = tested on: U251 CNS
SW-620 colon = tested on: SW-620 colon
RPMI-8226 leukemia = tested on: RPMI-8226 leukemia
MALME-3M melanoma = tested on: MALME-3M melanoma
MDA-N = tested on: MDA-N
NCI-H226 lung = tested on: NCI-H226 lung
K-562 leukemia = tested on: K-562 leukemia
LOX IMVI melanoma = tested on: LOX IMVI melanoma
MDA-MB-231 breast = tested on: MDA-MB-231 breast

Structure (SMILES) | TGI (HOP-62 NSCLC) | TGI (U251 CNS) | TGI (SW-620 colon) | TGI (RPMI-8226 leukemia) | TGI (MALME-3M melanoma) | TGI (MDA-N) | TGI (NCI-H226 lung) | TGI (K-562 leukemia) | TGI (LOX IMVI melanoma) | TGI (MDA-MB-231 breast) | GI50 (K-562 leukemia) | GI50 (U251 CNS) | GI50 (NCI-H226 lung) | GI50 (MDA-MB-231 breast) | GI50 (HOP-62 NSCLC) | GI50 (LOX IMVI melanoma) | GI50 (SW-620 colon) | GI50 (RPMI-8226 leukemia) | GI50 (MALME-3M melanoma)
C=CCOC(C)(C)C1=CCC(C)CC1 (centres undefined) | > 100 µM | > 100 µM | > 100 µM | > 100 µM | > 100 µM | > 100 µM | – | – | – | – | – | – | – | – | – | – | – | – | –
CN(C)c1cccc2c(S(=O)(=O)NCCN)cccc12 | > 100 µM | > 100 µM | > 100 µM | – | > 100 µM | > 100 µM | > 100 µM | > 100 µM | > 100 µM | > 100 µM | – | – | – | – | – | – | – | – | –
Cc1cc(-c2ccc(N=Nc3ccc4c(S(=O)(=O)O)cc(S(=O)(=O)O)c(N)c4c3O)c(C)c2)ccc1N=Nc1ccc2c(S(=O)(=O)O)cc(S(=O)(=O)O)c(N)c2c1O | > 100 µM | > 100 µM | > 100 µM | > 100 µM | > 100 µM | – | > 100 µM | > 100 µM | > 100 µM | – | – | – | – | – | – | – | – | – | –
COc1cc2c(cc1OC)C1=C(C=O)c3ccc(OC)c(OC)c3C(O)N1CC2 (centres undefined) | > 100 µM | 45.9 µM | > 100 µM | 38.3 µM | 53.9 µM | > 100 µM | > 100 µM | – | – | 46.6 µM | – | – | – | – | – | – | – | – | –
COc1ccc2oc(=O)c(-c3cc4c(c(C)n3)c(=O)oc3ccc(OC)cc34)cc2c1 | > 100 µM | > 100 µM | > 100 µM | > 100 µM | – | > 100 µM | > 100 µM | > 100 µM | > 100 µM | > 100 µM | – | – | – | – | – | – | – | – | –
Cc1cc2nc(N3C(=O)/C(=C/Cc4ccco4)N=C3c3ccccc3)sc2cc1C | > 100 µM | > 100 µM | > 100 µM | > 100 µM | – | 30 µM | – | > 100 µM | > 100 µM | > 100 µM | – | – | – | – | – | – | – | – | –
O=C(/C=C/c1ccccc1)c1cc(CN2CCOCC2)c(O)c(CN2CCOCC2)c1 | 39.3 µM | 16.3 µM | 28.9 µM | 21.4 µM | – | 39 µM | 64.9 µM | 36.2 µM | 19.5 µM | 32.7 µM | – | – | – | – | – | – | – | – | –
COc1ccc(/C(C=O)=C(\Cl)c2ccc(OC)c(OC)c2)cc1 | > 100 µM | > 100 µM | > 100 µM | > 100 µM | > 100 µM | – | > 100 µM | > 100 µM | > 100 µM | – | – | – | – | – | – | – | – | – | –
COc1ccc(C(=CCC(C)C2CCC3[C@@H]4C(OC(C)=O)CC5CC(OC(C)=O)CC[C@]5(C)C4CC(OC(C)=O)[C@]23C)c2ccc(OC)cc2)cc1 (some centres undefined) | > 100 µM | > 100 µM | > 100 µM | > 100 µM | – | – | – | > 100 µM | – | > 100 µM | – | – | – | – | – | – | – | – | –
Cc1nc(C(=Nc2ccc(Br)cc2)Nn2cnnc2)no1 | > 100 µM | > 100 µM | > 100 µM | > 100 µM | > 100 µM | > 100 µM | – | > 100 µM | – | > 100 µM | – | – | – | – | – | – | – | – | –
Cc1ccc(S(=O)(=O)OCCN(CCOS(=O)(=O)c2ccc(C)cc2)c2ccc(C=O)cc2)cc1 | – | 71.5 µM | > 100 µM | > 100 µM | 97.3 µM | – | – | > 100 µM | > 100 µM | > 100 µM | – | – | – | – | – | – | – | – | –
O=c1c2[nH]cnc2n(-c2ccccc2)c(=S)n1-c1ccccc1 | > 100 µM | > 100 µM | > 100 µM | > 100 µM | – | – | > 100 µM | > 100 µM | > 100 µM | > 100 µM | – | – | – | – | – | – | – | – | –
Cn1c(CO)ccc1-c1ccc(-c2ccc(CO)[se]2)[se]1 | 40.8 µM | 24.4 µM | > 100 µM | 12.1 µM | 17.7 µM | – | 2.56 µM | 98.5 µM | 41.2 µM | > 67.2 µM | – | – | – | – | – | – | – | – | –
CCc1c(O)nc(Nc2nc3ccccc3[nH]2)[nH]c1=O | > 100 µM | > 100 µM | > 100 µM | – | > 100 µM | > 100 µM | > 100 µM | > 100 µM | > 100 µM | > 100 µM | – | – | – | – | – | – | – | – | –
COc1cccc(/C=N/[N-]C(N)=O)c1[O-].[Cu+2].[OH3+] | 44.3 µM | 19.7 µM | 27.3 µM | > 100 µM | 28.8 µM | – | 31.3 µM | 45.2 µM | 30.6 µM | – | 5.7 µM | 7.38 µM | – | – | – | – | – | – | –
NCCCNc1nc2ccccc2c2c(=O)c3cc(Cl)ccc3sc12 | – | – | – | – | – | – | 74.2 µM | – | – | 2.69 µM | – | – | 8.54 µM | 1.34 µM | – | – | – | – | –
CCOC(=O)N1CCNCCN(C(=O)OCC)CCNCC1 | > 100 µM | > 100 µM | > 100 µM | > 100 µM | – | > 100 µM | > 100 µM | > 100 µM | > 100 µM | > 100 µM | – | – | – | – | – | – | – | – | –
C[n+]1c2ccccc2n2c3ccccc3c(NCCCn3ccnc3)c(C#N)c21 | > 27 µM | > 33 µM | – | – | 4.5 µM | 9.82 µM | 9.11 µM | > 26 µM | 2.51 µM | 9.18 µM | – | – | – | – | – | – | – | – | –
CC(C)C(NCc1c2ccccc2[n+](C)c2ccccc12)C(=O)O (centres undefined) | 19.7 µM | 18 µM | 18.8 µM | 5.15 µM | 19.1 µM | – | 38.6 µM | 18.5 µM | 17.3 µM | – | – | – | – | – | – | – | – | – | –
N#Cc1cc(F)cc(Oc2ccc(S(=O)(=O)C(F)F)c3c2CC(F)(F)[C@H]3O)c1 | > 100 µM | > 100 µM | > 100 µM | 96.4 µM | > 100 µM | – | > 100 µM | > 100 µM | > 100 µM | 73.2 µM | 27.1 µM | 29.8 µM | 31.3 µM | 22.3 µM | 51.1 µM | 35 µM | 55.3 µM | 19.2 µM | 28.5 µM
CC(C)(NO)/C(=N\O)c1ccccc1 | > 10 µM | > 10 µM | > 10 µM | > 10 µM | > 10 µM | > 10 µM | > 10 µM | > 10 µM | – | > 10 µM | – | – | – | – | – | – | – | – | –
NC(=O)CSc1nc2ccccc2c(=O)n1N | – | > 100 µM | > 100 µM | > 100 µM | > 100 µM | > 100 µM | > 100 µM | > 100 µM | > 100 µM | > 100 µM | – | – | – | – | – | – | – | – | –
NC1CCC2(O)c3ccccc3C2C1 (centres undefined) | > 100 µM | > 100 µM | > 100 µM | > 100 µM | > 100 µM | – | > 100 µM | > 100 µM | > 100 µM | – | – | – | – | – | – | – | – | – | –
Cc1ccc(S(=O)(=O)NC(=O)Nc2ccc(C(=O)O)cc2)cc1 | > 100 µM | > 100 µM | > 100 µM | > 100 µM | > 100 µM | > 100 µM | – | > 100 µM | > 100 µM | > 100 µM | – | – | – | – | – | – | – | – | –
